Results reported in PubChem BioAssay AID624265 (Broad Institute, 2012).
Activity calls are given as the source filed them.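 How the source made its calls: active means at a dose no more than twice the top valid tested dose, the fitted curve drops below -35% activity change; inactive means the rest, rising-direction activity included.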

Experiment: cytotoxicity in NIH3T3 fibroblasts, dose response, cytotoxicity control for HSP40 inhibitor project, cell-based, CellTiter-Glo luminescence, cherry-pick, set 2 (AID 624265);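 further: cells exposed to compound for 48 hours before the ATP read; 0% = median neutral control signal and -100% = no luminescence left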
Details: NIH3T3 viability, CellTiter-Glo ATP luminescence; at 50 µM (top of the series)

## COc1ccc2oc(=O)c(-c3csc(Nc4cccc(O)c4)n3)cc2c1
  activity change, negative = toxicity: 4.36% (inactive)

## O=C1N(c2ccc(Cl)cc2)C(c2cccnc2)N2CCCN12 (configuration not stated)
  activity change, negative = toxicity: 17.3% (inactive)

## O=c1c(O)c(-c2ccccc2)oc2ccccc12
  activity change, negative = toxicity: -0.823% (inactive)

## O=[N+]([O-])c1ccc2c(OCc3nnc(-c4ccccc4Br)o3)ncnc2c1
  activity change, negative = toxicity: -6.18% (inactive)

## CC(C)(C)C(=O)C(Oc1ccc(Cl)cc1)n1cncn1 (configuration not stated)
  activity change, negative = toxicity: 9.05% (inactive)

## Oc1c(CN2CCCC2)cc(COCc2ccccc2)c2cccnc12
  activity change, negative = toxicity: -2.61% (inactive)

## c1ccc(C(=NNc2nc3ccccc3s2)c2ccccn2)cc1
  activity change, negative = toxicity: 11.9% (inactive)

## O=C(COc1ccc([N+](=O)[O-])cc1)Nc1nc(-c2ccccn2)cs1
  activity change, negative = toxicity: -17.8% (inactive)

## COc1ccccc1C1CCN(C(=O)c2ccc(Cl)cc2)CC1
  activity change, negative = toxicity: 6.31% (inactive)

## C=C(C)COc1ccc(-c2[nH]ncc2-c2ccc(Br)cc2)c(O)c1
  activity change, negative = toxicity: 1.03% (inactive)

## CCn1c(CNc2ccc(Cl)cc2)nnc1SCc1ccc(Cl)cc1
  activity change, negative = toxicity: 12.6% (inactive)

## CCCn1c2ccccc2c2cc(C(=O)O)ccc21
  activity change, negative = toxicity: -3.19% (inactive)

## COc1ccc(-c2cc(C(=O)N3CCN(c4ccccc4F)CC3)c3ccccc3n2)c(OC)c1
  activity change, negative = toxicity: -9.73% (inactive)

## O=C1c2ccccc2-n2c1nc1ccccc1c2=O
  activity change, negative = toxicity: -25.8% (inactive)

## O=C(c1ccccc1)c1coc2c1C(=O)c1ccccc1C2=O
  activity change, negative = toxicity: -10.3% (inactive)

## CC1=NN(C(N)=S)C(=O)C1N=Nc1cccc(Cl)c1C (configuration not stated)
  activity change, negative = toxicity: -14.8% (inactive)

## O=C(Oc1c(Cl)cc(Cl)c2cccnc12)c1cccs1
  activity change, negative = toxicity: 19% (inactive)

## COc1ccc(N=N/C(=C\O)C(=O)c2cccs2)cc1
  activity change, negative = toxicity: 14.1% (inactive)

## CCCn1c(=O)c(C(=O)NCc2ccc(OC)c(OC)c2)c(O)c2ccccc21
  activity change, negative = toxicity: 30.8% (inactive)

## CCC(Oc1ccc(Br)cc1Cl)C(=O)Nc1nnc(C2CC2)s1 (configuration not stated)
  activity change, negative = toxicity: 5.54% (inactive)

## O=C(Nc1ccc(Cl)cc1C(=O)Nc1ccc(Br)cn1)c1ccco1
  activity change, negative = toxicity: -5.93% (inactive)

## Cc1cc(Cl)ccc1C(=O)C1CCCN(C(=O)c2cncs2)C1 (configuration not stated)
  activity change, negative = toxicity: 14.2% (inactive)

## Cc1cc(C(=O)COC(=O)Cc2n[nH]c(=O)c3ccccc23)c(C)n1-c1cccc(C(F)(F)F)c1
  activity change, negative = toxicity: 24.5% (inactive)

## COc1ccc(N(C(=O)c2ccncc2)S(=O)(=O)c2ccc(F)cc2)cc1
  activity change, negative = toxicity: 0.026% (inactive)

## CC(=O)NC(c1cccc([N+](=O)[O-])c1)c1ccc2cccnc2c1O (configuration not stated)
  activity change, negative = toxicity: -27.2% (inactive)

## CCn1c(CNc2ccc(Cl)cc2)nnc1SCc1ccccc1
  activity change, negative = toxicity: -7.39% (inactive)

## O=c1c2ccccc2c(-c2ccc(O)cc2)nn1-c1cccc(C(F)(F)F)c1
  activity change, negative = toxicity: -18.6% (inactive)

## CCCCNC(=S)N/N=C1\CCCCc2ccccc21
  activity change, negative = toxicity: 1.99% (inactive)

## COc1cc(/C=N/O)cc(Br)c1OCc1cccc(Cl)c1
  activity change, negative = toxicity: 3.56% (inactive)

## CCCCC(CC)c1nnc(NC(=O)c2cccs2)s1 (configuration not stated)
  activity change, negative = toxicity: -1.51% (inactive)

## COC(OC)c1ccc(C#N)c(SCc2ccccc2)n1
  activity change, negative = toxicity: -6.85% (inactive)

## Cc1ccc(C)c(/C=C/C(=O)c2ccccc(=O)c2O)c1
  activity change, negative = toxicity: -4.58% (inactive)

## CC(=O)C1=C(c2cccc([N+](=O)[O-])c2)N(C(C)=O)n2c(C)nnc2S1
  activity change, negative = toxicity: 4.36% (inactive)

## O=C(NOC(=O)c1ccccc1)c1ccccc1
  activity change, negative = toxicity: -12.1% (inactive)

## O=S(=O)(c1ccc(Cl)cc1)N1CCC2(CC1)OCCN2S(=O)(=O)c1cccs1
  activity change, negative = toxicity: -0.748% (inactive)

## Cc1ccc(Nc2cc(C)nn2-c2nc(C)cc(C)n2)cc1
  activity change, negative = toxicity: -3.61% (inactive)

## COc1ccc(N(C)S(=O)(=O)c2ccc(Cl)c(C(=O)NNC(=O)c3ccccc3O)c2)cc1
  activity change, negative = toxicity: 3.26% (inactive)

## O=C(Nc1nnc(SCc2ccc(F)cc2)s1)c1ccccn1
  activity change, negative = toxicity: 5.25% (inactive)

## CC1CCN(c2ccc3c(c2)S(=O)(=O)c2ccccc2C3=O)CC1
  activity change, negative = toxicity: -1.31% (inactive)

## CCC(C)Sc1cccc(-c2nc3ccccn3c2NCc2ccccc2)c1 (configuration not stated)
  activity change, negative = toxicity: -15.9% (inactive)

## CCCCC(=O)NC(c1ccco1)c1cc(Cl)c2cccnc2c1O (configuration not stated)
  activity change, negative = toxicity: -22.9% (inactive)

## Clc1ccccc1C(c1ccccc1)(c1ccccc1)n1ccnc1
  activity change, negative = toxicity: 10.3% (inactive)

## Cc1ccc(Sc2ccc(NC(=O)CCl)cc2)cc1C
  activity change, negative = toxicity: 2.95% (inactive)

## CCCc1cc(C(N)=O)c(NC(=O)c2cc(C)on2)s1
  activity change, negative = toxicity: 12.3% (inactive)

## CC1(C(=O)OCC(=O)Nc2ccc3ccccc3c2)CC1(Cl)Cl (configuration not stated)
  activity change, negative = toxicity: 0.196% (inactive)

## O/N=C/c1cc(Br)ccc1OCc1ccccc1F
  activity change, negative = toxicity: 7.25% (inactive)

## Cc1c(C(=O)O)cccc1-c1ccc(/C=N/Nc2ccc(Br)cc2)o1
  activity change, negative = toxicity: -0.158% (inactive)

## CC(=O)NC(c1ccc(C)cc1)c1cc([N+](=O)[O-])c2cccnc2c1O (configuration not stated)
  activity change, negative = toxicity: -0.602% (inactive)

## Cc1ccc(-n2nnnc2SCC(=O)N2CCc3ccccc3C2)c(C)c1
  activity change, negative = toxicity: 3.85% (inactive)

## O=C(NCC1CC1(Cl)Cl)Nc1ccc(Cl)c(Cl)c1 (configuration not stated)
  activity change, negative = toxicity: 17.4% (inactive)

## CCc1ccc(S(=O)(=O)N(C(=O)c2ccncc2)c2ccc(OC(=O)c3ccncc3)cc2)cc1
  activity change, negative = toxicity: 12.1% (inactive)

## CC/C(=N/NC(=O)c1ccccc1O)c1c(C)[nH]n(-c2ccccc2)c1=O
  activity change, negative = toxicity: -2.64% (inactive)

## CC(C)=CCc1c(O)ccc(C(=O)Cc2ccccc2)c1O
  activity change, negative = toxicity: -2.45% (inactive)

## Cc1ccc(-c2c3c(nc4sc(C(N)=O)c(N)c24)CCCC3)o1
  activity change, negative = toxicity: 14.4% (inactive)

## Cc1ccc(NC(=S)c2nc3ccccc3[nH]2)c(C)c1
  activity change, negative = toxicity: -2.47% (inactive)

## CC12CC3(C)CC(C)(C1)CC(NC(=O)N1CCCC1)(C2)C3
  activity change, negative = toxicity: 17.5% (inactive)

## C=CCN(CC=C)C(=S)NC(=O)c1ccc(C)c(Br)c1
  activity change, negative = toxicity: 19.7% (inactive)

## CCC(NC(=S)NCc1ccc(F)cc1)c1ccc(C(C)C)cc1 (configuration not stated)
  activity change, negative = toxicity: 41.2% (inactive)

## C[n+]1c2cc(N)ccc2cc2ccc(N)cc21
  activity change, negative = toxicity: 14.2% (inactive)

## CCCn1nc(C(=O)N2CCN(S(=O)(=O)c3ccc(C)c(C)c3)CC2)c2ccccc2c1=O
  activity change, negative = toxicity: 2.59% (inactive)

## Cc1cccc(Nc2nc(-c3ccc(O)cc3O)cs2)n1
  activity change, negative = toxicity: 0.061% (inactive)

## Cc1ccsc1/C=C/c1ccc2cccc(O)c2n1
  activity change, negative = toxicity: -8.21% (inactive)

## Clc1nc(-c2ccccn2)nc2scc(-c3ccccc3)c12
  activity change, negative = toxicity: 5.16% (inactive)

## S=C(Nc1ccc(Oc2ccccc2)cc1)NC1CCCCCC1
  activity change, negative = toxicity: 12.1% (inactive)

## O=C(N/N=C/c1ccc[nH]1)c1sc2ccccc2c1Cl
  activity change, negative = toxicity: -15.3% (inactive)

## O=C(COc1ccccc1F)Nc1nc(-c2ccccn2)cs1
  activity change, negative = toxicity: -8.96% (inactive)

## CC(C)CSc1n[nH]c(=S)s1
  activity change, negative = toxicity: 9% (inactive)

## O=S1OC(c2ccccc2)c2cc(Cl)ccc21 (configuration not stated)
  activity change, negative = toxicity: 8.75% (inactive)

## Cc1ccc(O)c(-c2cc(-c3ccccc3C)[nH]n2)c1
  activity change, negative = toxicity: -5.19% (inactive)

## COc1ccc(O)c(C(=O)CC(=O)c2ccccc2C)c1
  activity change, negative = toxicity: 0.039% (inactive)

## CC(/C=N/n1c(COc2ccccc2)n[nH]c1=S)=C\c1ccccc1
  activity change, negative = toxicity: 14.6% (inactive)

## COc1ccc2[nH]c(=O)c(CN(Cc3cccnc3)C(=O)Nc3ccccc3)cc2c1
  activity change, negative = toxicity: -11.7% (inactive)

## O=S(=O)(Nc1ccccc1)c1ccc(Oc2ncc(C(F)(F)F)cc2Cl)cc1
  activity change, negative = toxicity: 13% (inactive)

## Cc1cc(NS(=O)(=O)c2ccc(C3CCCCC3)cc2)no1
  activity change, negative = toxicity: -14.2% (inactive)

## COc1ccc(Sc2nc(-c3ccccn3)ncc2OC)cc1
  activity change, negative = toxicity: 5.95% (inactive)

## CCCOc1ccc2ccccc2c1/C=C1\SC(=O)NC1=O
  activity change, negative = toxicity: 6.17% (inactive)

## COc1cc(NS(=O)(=O)c2ccc(C)cc2)c2ncccc2c1
  activity change, negative = toxicity: 5.44% (inactive)

## Cc1ccc(Sc2cc(C)nc(-c3ccccn3)n2)cc1
  activity change, negative = toxicity: 11.7% (inactive)

## CCCCNc1c(-c2ccc(-c3ccc(OC)cc3)c(OC)c2)nc2ccccn12
  activity change, negative = toxicity: 2.06% (inactive)

## COc1ccccc1-c1sc2cc3c(cc2c1C#Cc1cncn1C)OCO3
  activity change, negative = toxicity: 17.2% (inactive)

## COc1cc2cnc(-c3ccccc3)c(C(=O)c3ccc(F)cc3)c2cc1OC
  activity change, negative = toxicity: 26.6% (inactive)

## Cc1cccc(C)c1N1C(=O)C2ON(c3ccccc3)C(c3ccncc3)C2C1=O (configuration not stated)
  activity change, negative = toxicity: 15.5% (inactive)

## COc1ccc(/C=N/Nc2cc(C)nc(-n3nc(C)cc3C)n2)cc1
  activity change, negative = toxicity: -9.51% (inactive)

## Fc1ccc(CCNC(=S)Nc2ccc(F)c(Cl)c2)cc1
  activity change, negative = toxicity: -8.4% (inactive)

## CN(C)c1ccc(C=c2c3cc(O)ccc3n3c2cc(-c2ccccc2)[n+]3C)cc1
  activity change, negative = toxicity: 3.47% (inactive)

## CC(=O)Nc1cccc(NC(=O)CSc2ccc(-c3ccccn3)nn2)c1
  activity change, negative = toxicity: -9.54% (inactive)

## O=C(O)c1c(NC(=O)N2CCCC2)sc2c1CCCC2
  activity change, negative = toxicity: 19.6% (inactive)

## c1ccc(Cn2cc(-c3cccnc3)cn2)cc1
  activity change, negative = toxicity: -0.362% (inactive)

## C=CCOC(Cn1ccnc1)c1ccc(Cl)cc1Cl (configuration not stated)
  activity change, negative = toxicity: 9.44% (inactive)

## Cc1cc(/C=C2\SC(=S)N(C)C2=O)c(C)n1-c1ccc(O)cc1
  activity change, negative = toxicity: 6.11% (inactive)

## [O-][n+]1cccc2c(Br)cc(Br)c(O)c21
  activity change, negative = toxicity: -12.1% (inactive)

## Cc1nc2ccc(C(=O)NCc3ccc4c(c3)OCO4)cc2s1
  activity change, negative = toxicity: 1.22% (inactive)
